{"source": "patent US20260027116A1", "about": "“Methods of Treating Chronic Graft-Versus-Host Disease Following Allogeneic Hematopoietic Stem Cell Transplantation” (Kadmon Corporation, LLC, priority 2022, published 2026)", "key": {"cGVHD symptoms": {"test_system": "cGVHD symptoms", "test": "Example 1: Global Severity Rating (GSR)", "format": "in vivo, human", "description": "Maximal Improvement from Baseline in Global Severity Rating (GSR) by Clinician-reported cGVHD Assessment. […] The response was defined using the scores from 9 organs: skin, eyes, mouth, esophagus, upper gastrointestinal (GI) track, lower GI tract, liver, lungs, and joints and fascia plus GSR. End of treatment (EOT) visit was performed within 3 days after the participant's last dose of study drug. […] Analysis was performed on mITT population."}, "UGT1A9": {"target": "T1, UGT1A9 (Homo sapiens, UniProt O60656)", "T1 sequence (O60656 26-530)": "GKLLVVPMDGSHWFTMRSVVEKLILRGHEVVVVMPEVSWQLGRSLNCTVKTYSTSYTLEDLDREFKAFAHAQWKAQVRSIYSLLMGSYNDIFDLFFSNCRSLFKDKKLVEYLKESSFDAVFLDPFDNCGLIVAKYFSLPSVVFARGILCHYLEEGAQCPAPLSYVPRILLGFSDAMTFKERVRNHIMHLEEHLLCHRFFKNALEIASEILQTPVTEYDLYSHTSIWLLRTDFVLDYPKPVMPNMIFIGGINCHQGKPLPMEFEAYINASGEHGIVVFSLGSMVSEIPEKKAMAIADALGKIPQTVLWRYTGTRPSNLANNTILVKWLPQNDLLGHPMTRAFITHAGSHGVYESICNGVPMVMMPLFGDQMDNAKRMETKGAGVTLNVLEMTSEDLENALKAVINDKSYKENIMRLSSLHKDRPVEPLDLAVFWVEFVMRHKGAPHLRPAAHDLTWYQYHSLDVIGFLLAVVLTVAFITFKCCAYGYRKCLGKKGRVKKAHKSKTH", "test": "metabolism in vitro", "format": "in vitro ADME"}, "OATPIB1": {"target": "T2, OATPIB1 (Homo sapiens, UniProt Q9Y6L6)", "T2 sequence (Q9Y6L6 1-691)": "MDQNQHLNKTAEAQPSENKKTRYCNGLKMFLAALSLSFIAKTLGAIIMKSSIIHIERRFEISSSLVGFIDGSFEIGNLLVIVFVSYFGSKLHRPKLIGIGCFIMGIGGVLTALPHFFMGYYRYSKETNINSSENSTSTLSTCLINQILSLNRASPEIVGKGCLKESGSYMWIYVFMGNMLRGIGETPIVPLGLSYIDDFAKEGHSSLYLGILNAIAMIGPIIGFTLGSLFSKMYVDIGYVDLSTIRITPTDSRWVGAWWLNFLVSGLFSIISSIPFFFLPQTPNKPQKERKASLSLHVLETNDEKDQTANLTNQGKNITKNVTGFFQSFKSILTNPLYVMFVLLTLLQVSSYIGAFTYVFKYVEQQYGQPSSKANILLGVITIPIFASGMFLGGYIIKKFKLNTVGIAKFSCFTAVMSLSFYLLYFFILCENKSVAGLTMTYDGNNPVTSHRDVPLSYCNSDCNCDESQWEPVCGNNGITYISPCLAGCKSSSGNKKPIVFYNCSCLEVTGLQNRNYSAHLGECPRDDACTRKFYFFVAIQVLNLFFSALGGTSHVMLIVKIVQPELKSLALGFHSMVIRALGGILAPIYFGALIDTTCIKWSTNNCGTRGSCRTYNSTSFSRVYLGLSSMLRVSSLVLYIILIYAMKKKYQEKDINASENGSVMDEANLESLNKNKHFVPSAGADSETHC", "test": "transporter inhibition in vitro", "format": "in vitro ADME", "details": "at clinically relevant concentrations"}, "UGT1A1": {"target": "T3, UGT1A1 (Homo sapiens, UniProt P22309)", "T3 sequence (P22309 26-533)": "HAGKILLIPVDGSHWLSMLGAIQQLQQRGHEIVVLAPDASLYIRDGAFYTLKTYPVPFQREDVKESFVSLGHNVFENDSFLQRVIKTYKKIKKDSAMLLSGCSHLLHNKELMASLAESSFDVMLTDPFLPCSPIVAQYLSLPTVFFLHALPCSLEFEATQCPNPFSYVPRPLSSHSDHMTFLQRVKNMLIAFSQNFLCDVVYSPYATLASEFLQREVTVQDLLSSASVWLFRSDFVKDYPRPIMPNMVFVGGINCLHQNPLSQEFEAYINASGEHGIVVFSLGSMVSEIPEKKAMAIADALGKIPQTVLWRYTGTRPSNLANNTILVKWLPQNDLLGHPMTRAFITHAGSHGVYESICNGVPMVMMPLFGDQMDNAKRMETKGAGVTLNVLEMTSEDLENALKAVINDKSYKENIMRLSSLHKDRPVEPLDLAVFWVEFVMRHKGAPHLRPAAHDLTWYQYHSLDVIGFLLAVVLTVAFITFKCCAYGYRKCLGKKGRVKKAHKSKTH", "test": "enzyme inhibition in vitro", "format": "in vitro ADME"}}}
{"smiles": "CC(C)NC(=O)COc1cccc(-c2nc(Nc3ccc4[nH]ncc4c3)c3ccccc3n2)c1", "note": "[Belumosudil, 2-{3-[4-(1H-indazol-5-ylamino)-2-quinazolinyl]phenoxy}-N-(propan-2-yl) acetamide]", "values": [{"measurement": "GSR maximal improvement 0, participants (%)", "setting": "cGVHD symptoms; Cohort 1 200 mg QD", "result": "5 (29%) participants"}, {"measurement": "GSR maximal improvement 1, participants (%)", "setting": "cGVHD symptoms; Cohort 1 200 mg QD", "result": "0 (0%) participants"}, {"measurement": "GSR maximal improvement 3, participants (%)", "setting": "cGVHD symptoms; Cohort 1 200 mg QD", "result": "0 (0%) participants"}, {"measurement": "GSR maximal improvement from baseline −7, participants (%)", "setting": "cGVHD symptoms; Cohort 1 200 mg QD", "result": "0 (0%) participants"}, {"measurement": "GSR maximal improvement −1, participants (%)", "setting": "cGVHD symptoms; Cohort 1 200 mg QD", "result": "1 (6%) participants"}, {"measurement": "GSR maximal improvement −2, participants (%)", "setting": "cGVHD symptoms; Cohort 1 200 mg QD", "result": "2 (12%) participants"}, {"measurement": "GSR maximal improvement −3, participants (%)", "setting": "cGVHD symptoms; Cohort 1 200 mg QD", "result": "4 (24%) participants"}, {"measurement": "GSR maximal improvement −4, participants (%)", "setting": "cGVHD symptoms; Cohort 1 200 mg QD", "result": "2 (12%) participants"}, {"measurement": "GSR maximal improvement −5, participants (%)", "setting": "cGVHD symptoms; Cohort 1 200 mg QD", "result": "2 (12%) participants"}, {"measurement": "GSR maximal improvement −6, participants (%)", "setting": "cGVHD symptoms; Cohort 1 200 mg QD", "result": "0 (0%) participants"}, {"measurement": "GSR maximal improvement 0, participants (%)", "setting": "cGVHD symptoms; Cohort 2 200 mg BID", "result": "4 (25%) participants"}, {"measurement": "GSR maximal improvement 1, participants (%)", "setting": "cGVHD symptoms; Cohort 2 200 mg BID", "result": "1 (6%) participants"}, {"measurement": "GSR maximal improvement 3, participants (%)", "setting": "cGVHD symptoms; Cohort 2 200 mg BID", "result": "1 (6%) participants"}, {"measurement": "GSR maximal improvement from baseline −7, participants (%)", "setting": "cGVHD symptoms; Cohort 2 200 mg BID", "result": "0 (0%) participants"}, {"measurement": "GSR maximal improvement −1, participants (%)", "setting": "cGVHD symptoms; Cohort 2 200 mg BID", "result": "2 (13%) participants"}, {"measurement": "GSR maximal improvement −2, participants (%)", "setting": "cGVHD symptoms; Cohort 2 200 mg BID", "result": "4 (25%) participants"}, {"measurement": "GSR maximal improvement −3, participants (%)", "setting": "cGVHD symptoms; Cohort 2 200 mg BID", "result": "0 (0%) participants"}, {"measurement": "GSR maximal improvement −4, participants (%)", "setting": "cGVHD symptoms; Cohort 2 200 mg BID", "result": "0 (0%) participants"}, {"measurement": "GSR maximal improvement −5, participants (%)", "setting": "cGVHD symptoms; Cohort 2 200 mg BID", "result": "2 (13%) participants"}, {"measurement": "GSR maximal improvement −6, participants (%)", "setting": "cGVHD symptoms; Cohort 2 200 mg BID", "result": "2 (13%) participants"}, {"measurement": "GSR maximal improvement 0, participants (%)", "setting": "cGVHD symptoms; Cohort 3 400 mg QD", "result": "3 (14%) participants"}, {"measurement": "GSR maximal improvement 1, participants (%)", "setting": "cGVHD symptoms; Cohort 3 400 mg QD", "result": "1 (5%) participants"}, {"measurement": "GSR maximal improvement 3, participants (%)", "setting": "cGVHD symptoms; Cohort 3 400 mg QD", "result": "0 (0%) participants"}, {"measurement": "GSR maximal improvement from baseline −7, participants (%)", "setting": "cGVHD symptoms; Cohort 3 400 mg QD", "result": "2 (10%) participants"}, {"measurement": "GSR maximal improvement −1, participants (%)", "setting": "cGVHD symptoms; Cohort 3 400 mg QD", "result": "4 (19%) participants"}, {"measurement": "GSR maximal improvement −2, participants (%)", "setting": "cGVHD symptoms; Cohort 3 400 mg QD", "result": "4 (19%) participants"}, {"measurement": "GSR maximal improvement −3, participants (%)", "setting": "cGVHD symptoms; Cohort 3 400 mg QD", "result": "1 (5%) participants"}, {"measurement": "GSR maximal improvement −4, participants (%)", "setting": "cGVHD symptoms; Cohort 3 400 mg QD", "result": "3 (14%) participants"}, {"measurement": "GSR maximal improvement −5, participants (%)", "setting": "cGVHD symptoms; Cohort 3 400 mg QD", "result": "0 (0%) participants"}, {"measurement": "GSR maximal improvement −6, participants (%)", "setting": "cGVHD symptoms; Cohort 3 400 mg QD", "result": "0 (0%) participants"}, {"measurement": "metabolism by UGT1A9", "setting": "UGT1A9", "result": "to a lesser extent"}, {"measurement": "inhibition of OATPIB1", "setting": "OATPIB1", "result": "inhibits"}, {"measurement": "inhibition of UGT1A1", "setting": "UGT1A1", "result": "inhibitor"}]}
